System: cell proliferation
Experiment: screening of the small-molecule library for materials that can inhibit cell proliferation
Assay type: cell-based
Conditions: screen of small-molecule library; no data or method given

CCOC(=O)Cn1c(C)c(/C=N/NC(=O)c2cc3c(ccc4ccccc43)o2)c2ccccc21 [Compound 7, (E)-ethyl 2-(2-methyl-3-((2-(naphtho[2,1-b]furan-2-carbonyl)hydrazono)methyl)-1H-indol-1-yl)acetate]
activity of inhibiting mitosis: has an activity of inhibiting mitosis
